Results: patent EP3409761B1, “CULTURE MEDIUM COMPOSITION, AND METHOD FOR CULTURING CELL OR TISSUE USING SAID COMPOSITION” (Nissan Chemical Corporation, priority 2012, dated 2014)

Experiments:
Type in all cases: cell-based
[1] = system: human lung cancer cell line A549; assay: Effect of Gefitinib on proliferation of A549 cell stimulated with human HB-EGF; conditions: DAG 0.015%, day 6
Description: This aqueous solution was sterilized at 121°C for 20 min in an autoclave. […] Each plate was cultured by being stood still in a CO2 incubator (37°C, 5% CO2). […] To the culture medium on day 6 was added an ATP reagent (150 µL) (CellTiter-Glo (registered trade mark) Luminescent Cell Viability Assay, manufactured by Promega) to give a suspension, which was stood for about 10 min at room temperature, and the luminescence intensity (RLU value) was measured by FlexStation3 (manufactured by Molecular Devices), and the number of viable cells was measured by subtracting the luminescence value of the medium alone.

[2] = system: human lung cancer cell line A549; assay: A549 cell proliferation test using Trametinib and MK-2206; conditions: day 4 of the static culture
Description: (§1) This aqueous solution was sterilized at 121°C for 20 min in an autoclave. […] Each plate was cultured by being stood still in a CO2 incubator (37°C, 5% CO2). […] The anticancer drugs used were Trametinib (manufactured by Santa Cruz, MEK inhibitor) and MK-2206 (manufactured by Santa Cruz, Akt inhibitor). […]

[3] = system: human cervical cancer cell line HeLa; assay: Comparison with single layer culture method in cell proliferation test using anticancer drug; conditions: day 4
Description: This aqueous solution was sterilized at 121°C for 20 min in an autoclave. […] Each plate was cultured by being stood still in a CO2 incubator (37°C, 5% CO2). […] The anticancer drug used was Adriamycin (manufactured by WAKO), Paclitaxel (manufactured by WAKO) or Mitomycin C (manufactured by WAKO). To the culture medium on day 4 was added an ATP reagent (150 µL) (CellTiter-Glo (registered trade mark) Luminescent Cell Viability Assay, manufactured by Promega) to give a suspension, which was stood for about 10 min at room temperature, and the luminescence intensity (RLU value) was measured by FlexStation3 (manufactured by Molecular Devices), and the number of viable cells was measured by subtracting the luminescence value of the medium alone. For WST-8 measurement, a WST-8 solution (manufactured by DOJINDO Laboratories, 15 µL) was added, the mixture was incubated at 37°C for 100 min, the absorbance at 450 nm was measured by an absorbance spectrometer (manufactured by Molecular Devices, SPECTRA MAX 190), and the number of viable cells was measured by subtracting the absorbance of the medium alone.

[4] = system: human cervical cancer cell line HeLa; assay: HeLa cell proliferation test using Trametinib and MK-2206; conditions: day 4 of the static culture
Description: as §1

[5] = system: human cervical cancer cell line HeLa; assay: Cell proliferation test using various anticancer drugs; conditions: DAG 0.030% medium; for cell density: 5 days later
Description: This aqueous solution was sterilized at 121°C for 20 min in an autoclave. […] The anticancer drug used was Adriamycin (manufactured by WAKO), Paclitaxel (manufactured by WAKO) or Mitomycin C (manufactured by WAKO).
Successively, this plate was cultured by being stood still in a CO2 incubator (37°C, 5% CO2) for 7 days. After culturing for 3, 5, 7 days, to the culture medium was added a WST-8 solution (manufactured by DOJINDO Laboratories, 20 µL), and the mixture was incubated at 37°C for 100 min. The absorbance at 450 nm was measured by an absorbance spectrometer (manufactured by Molecular Devices, SPECTRA MAX 190), and the number of viable cells was measured by subtracting the absorbance of the medium alone. The culture medium containing the cells after 5 days of culture was stirred with a pipette and the obtained stirred solution (20 µL) was mixed with Trypan Blue stain 0.4% (manufactured by Invitrogen, 20 µL) and the cell density was measured under a microscope.

[6] = system: human squamous carcinoma cell line A431; assay: Effect of Gefitinib, Elrotinib on proliferation of A431 cells stimulated with human HB-EGF; conditions: DAG 0.015%
Description: Each plate was cultured by being stood still in a CO2 incubator (37°C, 5% CO2). […] To the culture medium on days 4, 6 and 8 was added an ATP reagent (150 µL) (CellTiter-Glo (registered trade mark) Luminescent Cell Viability Assay, manufactured by Promega) to give a suspension, which was stood for about 10 min at room temperature, and the luminescence intensity (RLU value) was measured by FlexStation3 (manufactured by Molecular Devices), and the number of viable cells was measured by subtracting the luminescence value of the medium alone.

[7] = drug 0.001 µM, deacylated gellan gum addition group (0.015%)
[8] = drug 0.001 µM, single layer culture group
[9] = drug 0.003 µM, deacylated gellan gum addition group (0.015%)
[10] = drug 0.003 µM, single layer culture group
[11] = drug 0.01 µM, deacylated gellan gum addition group (0.015%)
[12] = drug 0.01 µM, single layer culture group
[13] = drug 0.03 µM, deacylated gellan gum addition group (0.015%)
[14] = drug 0.03 µM, single layer culture group

Compound: COc1cc2ncnc(Nc3ccc(F)c(Cl)c3)c2cc1OCCCN1CCOCC1 [Gefitinib]
- % Control value of the RLU value (ATP measurement) ([1]; 0.1 µM, HB-EGF 100 ng/ml): 91 % Control
- % Control value of the RLU value (ATP measurement) ([1]; 0.1 µM, HB-EGF no addition): 89 % Control
- % Control value of the RLU value (ATP measurement) ([1]; 0.3 µM, HB-EGF 100 ng/ml): 74 % Control
- % Control value of the RLU value (ATP measurement) ([1]; 0.3 µM, HB-EGF no addition): 84 % Control
- % Control value of the RLU value (ATP measurement) ([1]; 1 µM, HB-EGF 100 ng/ml): 59 % Control
- % Control value of the RLU value (ATP measurement) ([1]; 1 µM, HB-EGF no addition): 77 % Control
- % Control value of the RLU value (ATP measurement) ([1]; 3 µM, HB-EGF 100 ng/ml): 53 % Control
- % Control value of the RLU value (ATP measurement) ([1]; 3 µM, HB-EGF no addition): 69 % Control

Compound: CC(=O)O[C@H]1C(=O)[C@@]2(C)[C@H]([C@H](OC(=O)c3ccccc3)[C@]3(O)C[C@H](OC(=O)[C@H](O)[C@@H](NC(=O)c4ccccc4)c4ccccc4)C(C)=C1C3(C)C)[C@]1(OC(C)=O)CO[C@@H]1C[C@@H]2O [Paclitaxel]
- % Control value of the RLU value (ATP measurement) [2, 7]: 93 % Control
- % Control value of the RLU value (ATP measurement) [2, 8]: 81 % Control
- % Control value of the RLU value (ATP measurement) [2, 9]: 52 % Control
- % Control value of the RLU value (ATP measurement) [2, 10]: 31 % Control
- % Control value of the RLU value (ATP measurement) [2, 11]: 32 % Control
- % Control value of the RLU value (ATP measurement) [2, 12]: 16 % Control
- % Control value of the RLU value (ATP measurement) [3, 7]: 107 % Control
- % Control value of the absorbance at 450 nm (WST-8 measurement) [3, 7]: 125 % Control
- % Control value of the RLU value (ATP measurement) [3, 8]: 95 % Control
- % Control value of the absorbance at 450 nm (WST-8 measurement) [3, 8]: 99 % Control
- % Control value of the RLU value (ATP measurement) [3, 9]: 34 % Control
- % Control value of the absorbance at 450 nm (WST-8 measurement) [3, 9]: 33 % Control
- % Control value of the RLU value (ATP measurement) [3, 10]: 36 % Control
- % Control value of the absorbance at 450 nm (WST-8 measurement) [3, 10]: 32 % Control
- % Control value of the RLU value (ATP measurement) [3, 11]: 18 % Control
- % Control value of the absorbance at 450 nm (WST-8 measurement) [3, 11]: 5 % Control
- % Control value of the RLU value (ATP measurement) [3, 12]: 10 % Control
- % Control value of the absorbance at 450 nm (WST-8 measurement) [3, 12]: 10 % Control
- % Control value of the RLU value (ATP measurement) [3, 13]: 17 % Control
- % Control value of the absorbance at 450 nm (WST-8 measurement) [3, 13]: 3 % Control
- % Control value of the RLU value (ATP measurement) [3, 14]: 4 % Control
- % Control value of the absorbance at 450 nm (WST-8 measurement) [3, 14]: 5 % Control
- % Control value of the RLU value (ATP measurement) [4, 7]: 104 % Control
- % Control value of the RLU value (ATP measurement) [4, 8]: 89 % Control
- % Control value of the RLU value (ATP measurement) [4, 9]: 46 % Control
- % Control value of the RLU value (ATP measurement) [4, 10]: 15 % Control
- % Control value of the RLU value (ATP measurement) [4, 11]: 5 % Control
- % Control value of the RLU value (ATP measurement) [4, 12]: 2 % Control
- cell density ([5]; drug 0.001 µM): 5.3 10^4 cells/mL
- cell number (absorbance at 450 nm, WST-8) ([5]; drug 0.001 µM, day 3): 0.276
- cell number (absorbance at 450 nm, WST-8) ([5]; drug 0.001 µM, day 5): 0.223
- cell number (absorbance at 450 nm, WST-8) ([5]; drug 0.001 µM, day 7): 0.222
- cell density ([5]; drug 0.01 µM): 1.6 10^4 cells/mL
- cell number (absorbance at 450 nm, WST-8) ([5]; drug 0.01 µM, day 3): 0.019
- cell number (absorbance at 450 nm, WST-8) ([5]; drug 0.01 µM, day 5): < 0
- cell number (absorbance at 450 nm, WST-8) ([5]; drug 0.01 µM, day 7): < 0
- cell density ([5]; drug 0.1 µM): 0.9 10^4 cells/mL
- cell number (absorbance at 450 nm, WST-8) ([5]; drug 0.1 µM, day 3): < 0
- cell number (absorbance at 450 nm, WST-8) ([5]; drug 0.1 µM, day 5): < 0
- cell number (absorbance at 450 nm, WST-8) ([5]; drug 0.1 µM, day 7): < 0
- cell density ([5]; drug 1 µM): 0.2 10^4 cells/mL
- cell number (absorbance at 450 nm, WST-8) ([5]; drug 1 µM, day 3): < 0
- cell number (absorbance at 450 nm, WST-8) ([5]; drug 1 µM, day 5): < 0
- cell number (absorbance at 450 nm, WST-8) ([5]; drug 1 µM, day 7): < 0

Compound: C#Cc1cccc(Nc2ncnc3cc(OCCOC)c(OCCOC)cc23)c1 [Elrotinib]
- % Control value of the RLU value (ATP measurement) ([6]; drug 0.1 µM, day 4): 88 % Control
- % Control value of the RLU value (ATP measurement) ([6]; drug 0.1 µM, day 8): 56 % Control
- % Control value of the RLU value (ATP measurement) ([6]; drug 0.3 µM, day 4): 89 % Control
- % Control value of the RLU value (ATP measurement) ([6]; drug 0.3 µM, day 8): 27 % Control
- % Control value of the RLU value (ATP measurement) ([6]; drug 1 µM, day 4): 21 % Control
- % Control value of the RLU value (ATP measurement) ([6]; drug 1 µM, day 8): 4 % Control
- % Control value of the RLU value (ATP measurement) ([6]; drug 3 µM, day 4): 4 % Control
- % Control value of the RLU value (ATP measurement) ([6]; drug 3 µM, day 8): 0 % Control
